Laboratory results published in US20250339405A1, “a-SYNUCLEIN AGGREGATE BINDING AGENT AND IMAGING METHOD” (National Institutes for quantum and Radiological Science …, priority 2019, published 2025).

Experiments:
α-synuclein lesions [1] = molecular target: T1, α-synuclein lesions (Mus musculus, UniProt O55042); assay: In vivo two-photon laser scanning fluorescence microscopy of α-synuclein fibril-injected model mouse
T1 construct: from tissue; host or cells: brain of C57BL/6 mice inoculated in the striatum with recombinant murine α-synuclein fibrils (made in E. coli)
Protocol: Note that the α-synuclein aggregate was inoculated into the striatum of the mouse with the following manner. First, hair on the head of 9-week-old C57BL/6 male mouse anesthetized with 1.5% (v/v) isoflurane was removed, and the scalp was disinfected with isodine, followed by application of xylocaine and incision in the scalp to expose the skull. Then, a hole was drilled in the skull at a position of 0.05 mm posterior to the bregma and 2 mm lateral to the midline, and 3 μl of an α-synuclein fiber solution (murine α-synuclein fiber (4 mg/ml) in saline) was injected into a position […] ventral to the brain surface using a glass pipette, and then the scalp was returned and sutured.
A model mouse was anesthetized with 1.5% (v/v) isoflurane 6 weeks after the injection of the α-synuclein fiber solution, and a cranial window was provided according to the Seylaz-Tomita method (Tomita et al. J Cereb Blood Flow Metab 25, 858-67, 2005). The mouse was anesthetized with 1.5% (v/v) isoflurane 2 weeks after the generation of the cranial window, and 50 μl of a solution of DMSO/physiological saline water=1:1 containing 0.05% of C05-05 or PBB3 was administered via the tail vein. The mouse was fixed under a two-photon laser fluorescence microscope 90 minutes after administration of C05-05 or 30 minutes after administration of PBB3, and 100 μl of a saline solution containing 5 mM of Sulforhodamine 101 was administered intraperitoneally, followed by intravital two-photon fluorescence imaging at an excitation wavelength of 900 nm. The detection wavelengths for C05-05 and PBB3 were set at 500 nm to 550 nm, and detection wavelengths for Sulforhodamine 101 were set at 573 nm to 648 nm.

α-synuclein lesions [2] = molecular target: T1, α-synuclein lesions; assay: Ex vivo imaging of α-synuclein fibril-injected model mouse brain; format: in vivo
Protocol: A model mouse at 6 weeks after the injection of the α-synuclein fiber solution was anesthetized with 1.5% (v/v) isoflurane in a manner similar to that described in “(Preparation of α-synuclein fibril-injected mouse model)” above, and C05-05 (1.66 mg/kg) or BF-227 (1.66 mg/kg) was intraperitoneally administered.
The brains were collected and frozen 90 minutes after the administration of C05-05 (or 120 minutes after the administration of BF-227), and frozen sections with the thickness of 20 μm were prepared in a cryostat (HM560). After mounting the sections using a mounting medium (VECTASHIELD H-1000), images of α-synuclein aggregate-enriched areas on the sections were obtained using a fluorescence microscope (DM4000).
Moreover, the same sections were immersed and fixed overnight in a phosphate buffer solution containing 4% paraformaldehyde. The brain after fixation was washed under running water and then treated with an autoclave for the antigen retrieval. Immunohistochemical staining with an anti-phosphorylated α-synuclein monoclonal antibody (pS129, abcam, ab59264) (1:1000) was carried out, and after mounting the sections using a mounting medium (VECTASHIELD H-1000), images of the same areas were obtained using the fluorescence microscope (DM4000). FIG. 7(a) contains images showing the case where C05-05 was administered, and FIG. 7(b) is images showing the case where BF-227 was administered.

[3] = molecular target: T2, α-synuclein aggregate formed in the brain of the DLB patient (Homo sapiens, UniProt P37840); assay: In vitro fluorescence microscope measurement, DLB patient brain sections; format: binding; conditions: 30 μM compound, 50% ethanol, 30 minutes, room temperature, amygdala sections
T2 construct: Postfixed fresh frozen sections of the amygdala tissue of the DLB patient; from tissue; host or cells: post-mortem human DLB amygdala, frozen sections
From the text: Postmortem human brains were obtained from autopsies carried out with respect to a dementia with Lewy bodies (DLB) and Alzheimer's disease (AD) patients.
A frozen DLB tissue was sliced with a thickness of 20 μm in a cryostat (HM560, Carl Zeiss).
Postfixed fresh frozen sections of the amygdala tissue of the DLB patient and formalin fixed, paraffin embedded sections of a deparaffinized middle frontal gyrus tissue of the AD patient were used. Thirty μM of each of the above compounds and brain sections were incubated in a 50% ethanol solution for 30 minutes at room temperature. The sections were then washed twice, i.e., washed with a 50% ethanol solution for 5 minutes and with ultrapure water for 3 minutes. After mounting the sections using a mounting medium (VECTASHIELD H-1000, Vector Laboratories), images of lesion-enriched areas on the sections were obtained using a fluorescence microscope (DM4000, Leica). Analysis software (Image J) was used to quantify the fluorescence of lesion-enriched and lesion-free (background) areas.

[4] = molecular target: T3, lesion composed of the phosphorylated α-synuclein (Mus musculus, UniProt O55042); assay: In vitro fluorescence microscope measurement, α-synuclein fibril-injected mouse brain sections; format: binding; conditions: 30 μM, 20% ethanol, 30 minutes, room temperature
T3 construct: from tissue; host or cells: brain of C57BL/6 mice inoculated in the striatum with recombinant murine α-synuclein fibrils (made in E. coli)
Protocol: First, murine α-synuclein was expressed in and extracted from E. coli as a recombinant protein, and incubated in vitro to form an insoluble α-synuclein aggregate.
Note that the α-synuclein aggregate was inoculated into the striatum of the mouse with the following manner. First, hair on the head of 9-week-old C57BL/6 male mouse anesthetized with 1.5% (v/v) isoflurane was removed, and the scalp was disinfected with isodine, followed by application of xylocaine and incision in the scalp to expose the skull. […]
The brain of the α-synuclein fibril-injected mouse was extracted, sectioned, and analyzed by fluorescent staining. […] After mounting the sections using a mounting medium (VECTASHIELD H-1000), images of α-synuclein aggregate-enriched areas on the sections were obtained using a fluorescence microscope (DM4000). […] Immunohistochemical staining with an anti-phosphorylated α-synuclein monoclonal antibody (pS129, abcam, ab59264) (1:1000) was carried out, and after mounting the sections using a mounting medium (VECTASHIELD H-1000), images of the same areas were obtained using the fluorescence microscope (DM4000).

[5] = molecular target: T4, A53T mutant human α-synuclein (Homo sapiens, UniProt P37840, A53T); assay: Inhibitory effect on α-synuclein aggregation (seeded, sarkosyl-insoluble fraction, CBB staining); format: biochemical; conditions: 37° C., 1 day
T4 construct: made in house; host or cells: E. coli
Protocol: First, A53T mutant human α-synuclein was expressed in and extracted from E. coli as a recombinant protein, and incubated in vitro to prepare α-synuclein aggregate seeds. To 0.02 μg of the α-synuclein aggregate seeds, C05-05 (in DMSO solution) was added at a final concentration of 20 μM, or 200 μM and stirred. An experiment in which only DMSO was added was conducted as a control experiment. These were suspended with 50 μL of A53T mutant human-synuclein monomer solution at a concentration of 1 mg/ml and then shaken at 37° C. for 1 day. Ten μL of the suspension was mixed with 90 μL of 1% sarkosyl and ultracentrifuged at 100 Krpm for 20 minutes, and a resulting precipitate was subjected to electrophoresis, followed by CBB staining of the gel. Images of the gels were obtained using an imager, and quantification of bands was carried out using analysis software (Image J).

- contrast in detecting lesions relative to PBB3 (α-synuclein lesions [1]; intravital two-photon imaging): higher contrast than PBB3
- detection of α-synuclein lesions by intravital two-photon fluorescence imaging (α-synuclein lesions [1]; tail vein, 50 μl of 0.05% solution, 90 minutes after C05-05 or 30 minutes after PBB3): bound to individual α-synuclein lesions
- entry into the brain after intravenous injection (α-synuclein lesions [1]; tail vein, model mouse): entered the brain of the living body
- entry into the brain (ex vivo imaging) (α-synuclein lesions [2]; 1.66 mg/kg, model mouse): entered the brain
- detection of α-synuclein lesions by ex vivo imaging (α-synuclein lesions [2]; 1.66 mg/kg, brains collected 90 minutes after C05-05 or 120 minutes after BF-227): bound to individual α-synuclein lesions
- contrast in detecting lesions relative to BF-227 (α-synuclein lesions [2]; ex vivo imaging): higher contrast than BF-227
- reduction of formation of insoluble α-synuclein aggregate compared with control experiment (DMSO) ([5]; final concentration 20 μM): approximately 20%
- reduction of formation of insoluble α-synuclein aggregate compared with control experiment (DMSO) ([5]; final concentration 200 μM): approximately 60%
Structure (SMILES): CNc1ccc(C#C/C=C/c2nc3ccc(OCC(O)CF)cc3s2)cn1 (stereo not shown) [C05-05, (E)-1-fluoro-3-(2-(4-(6-(methylamino)pyridin-3-yl)but-1-en-3-ynyl)benzo[d]thiazol-6-yloxy)propan-2-ol]
- binding to the α-synuclein aggregate formed in the brain of the DLB patient, reactivity relative to PBB3 [3]: reactivity equal to or greater than that of PBB3
- binding to phosphorylated α-synuclein lesion (co-staining with pS129 antibody) [4]: binds to the lesion composed of the phosphorylated α-synuclein
